Legend:
GIRK1/4 channels = biological target: T1, GIRK1/4 channels (Homo sapiens, UniProt P48544+P48549); experiment: Ligand-induced GIRK channel block in oocytes expressing GIRK channels in the absence of D2R; format: cell-based; conditions: for Current amplitude following application of ligand in the absence of D2R expression: oocytes injected with GIRK1 and GIRK4; for Ligand-induced GIRK channel block: 30 μM ligand, oocytes without D2R
T1 sequence (P48549 1-501): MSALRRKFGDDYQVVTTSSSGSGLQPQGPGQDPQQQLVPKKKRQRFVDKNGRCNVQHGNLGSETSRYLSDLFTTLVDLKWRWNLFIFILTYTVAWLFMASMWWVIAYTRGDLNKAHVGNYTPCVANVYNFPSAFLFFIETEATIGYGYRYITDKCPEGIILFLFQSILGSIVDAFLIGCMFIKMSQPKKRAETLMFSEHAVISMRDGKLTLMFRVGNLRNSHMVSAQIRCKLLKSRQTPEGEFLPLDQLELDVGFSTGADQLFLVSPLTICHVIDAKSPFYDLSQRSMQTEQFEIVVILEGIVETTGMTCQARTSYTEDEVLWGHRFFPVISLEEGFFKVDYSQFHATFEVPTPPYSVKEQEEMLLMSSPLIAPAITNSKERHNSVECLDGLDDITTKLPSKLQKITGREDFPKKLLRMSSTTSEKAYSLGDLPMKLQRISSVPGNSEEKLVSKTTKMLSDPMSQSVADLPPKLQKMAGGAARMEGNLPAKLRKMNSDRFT
T1 sequence (P48544 1-419): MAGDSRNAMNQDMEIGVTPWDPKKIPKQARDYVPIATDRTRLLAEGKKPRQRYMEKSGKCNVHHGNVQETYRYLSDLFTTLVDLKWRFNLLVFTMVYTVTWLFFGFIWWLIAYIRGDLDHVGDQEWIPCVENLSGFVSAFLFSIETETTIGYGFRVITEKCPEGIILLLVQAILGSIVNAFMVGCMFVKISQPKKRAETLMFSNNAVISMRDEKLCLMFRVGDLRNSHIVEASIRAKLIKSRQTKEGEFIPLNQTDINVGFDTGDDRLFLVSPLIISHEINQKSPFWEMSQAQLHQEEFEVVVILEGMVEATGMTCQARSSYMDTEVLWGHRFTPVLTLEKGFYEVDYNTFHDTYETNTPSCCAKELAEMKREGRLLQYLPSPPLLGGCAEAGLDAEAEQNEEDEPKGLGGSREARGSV
From the text: Figure S1. Effect of competing ligands on GIRK currents in the absence of D2R expression. Current
Figure S2. Intrinsic activities of aripiprazole analogues at WT D2R. Agonist responses of SWR-1-8, SV-III- […]

D2R = biological target: T2, D2R (Homo sapiens, UniProt P14416); experiment: BRET beta-arrestin2 recruitment curve-shift assay in transfected HEK293 cells; format: cell-based; conditions: 5 min preincubation with antagonist before dopamine
T2 construct: expressed in transfected cells
T2 sequence (P14416 whole entry): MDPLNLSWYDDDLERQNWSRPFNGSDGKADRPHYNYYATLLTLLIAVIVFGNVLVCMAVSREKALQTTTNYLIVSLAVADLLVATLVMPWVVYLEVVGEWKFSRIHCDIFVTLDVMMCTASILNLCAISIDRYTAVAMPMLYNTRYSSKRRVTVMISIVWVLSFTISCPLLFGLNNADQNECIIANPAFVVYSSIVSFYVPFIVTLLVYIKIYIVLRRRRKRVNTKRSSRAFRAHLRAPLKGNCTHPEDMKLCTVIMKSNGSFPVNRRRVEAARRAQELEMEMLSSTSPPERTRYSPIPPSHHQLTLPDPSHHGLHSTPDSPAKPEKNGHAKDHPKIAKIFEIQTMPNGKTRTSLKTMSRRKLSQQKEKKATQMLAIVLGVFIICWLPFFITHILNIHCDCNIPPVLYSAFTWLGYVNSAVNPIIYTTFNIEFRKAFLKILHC

D2R WT [1] = biological target: T3, D2R WT (Homo sapiens, UniProt P14416); experiment: cell-based
T3 sequence (P14416 whole entry): as above

D2R WT [2] = biological target: T3, D2R WT; experiment: G protein-coupled inward rectifier potassium (GIRK) channel activation assay in Xenopus oocytes coexpressing D2R, RGS4 and GIRK1/4

In the case of COc1ccccc1N1CCN(CCCCOc2ccc3c(c2)NC(=O)CC3)CC1 [SV-III-130], the “Current amplitude following application of ligand in the absence of D2R expression” value (from here on “Current amplitude following application”) (GIRK1/4 channels; 1 µM ligand) is reported as 1.00 ± 0.02 and the “Ligand-induced GIRK channel block” value (GIRK1/4 channels) is reported as less than 10%.

In the case of COc1ccccc1N1CCN(CCCOc2ccc3c(c2)NC(=O)CC3)CC1 [SWR-1-8], the “Ligand-induced GIRK channel block” value (GIRK1/4 channels) is reported as less than 10%, the “Current amplitude following application” value (GIRK1/4 channels; 30 µM ligand) is reported as 0.99 ± 0.06 and the “mode of antagonism of DA-induced beta-arrestin2 recruitment” value (D2R) is reported as “competitive antagonism”. The Ki (D2R WT [1]) was 0.00977 µM, the Kd (D2R WT [2]) was 0.0501 µM and the koff (D2R WT [2]) was 0.017 ± 0.002 s⁻¹. The “intrinsic activity in the GIRK activation assay (in words)” value (D2R WT [2]; WT D2R, normalized to 1 μM DA) was “antagonists/inverse agonists”.

With COc1ccccc1N1CCN(CCCCCOc2ccc3c(c2)NC(=O)CC3)CC1 [SWR-1-14] the “Ligand-induced GIRK channel block” value (GIRK1/4 channels) was less than 10% and the “Current amplitude following application” value (GIRK1/4 channels; 30 µM ligand) was 0.90 ± 0.01.
